Data from PubChem BioAssay AID220 (DTP/NCI, 2004).
“And” between values parts separate entries of the source, which are not always exact repeats. Identical values can stand only once. Records with an inconclusive call do not appear.

System: CD8F1 mice, subcutaneous mammary adenocarcinoma, T/C%
Assay: NCI In Vivo Anticancer Drug Screen. Data for tumor model Mammary Adenocarcinoma CD8F1 (subcutaneous) in CD8F1
Details: higher = larger tumour
In short: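 Ratio of treated to vehicle-control outcome, based on either survival or tumor size, in mice bearing transplantable tumors given the test compound.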

[1] = endpoint: median tumor weight (est.), dose: 1.0 mg/kg/injection, schedule: Q07DX005 (ip), vehicle: saline
[2] = endpoint: median tumor weight (est.), dose: 2.0 mg/kg/injection, schedule: Q07DX005 (ip), vehicle: saline
[3] = endpoint: median tumor weight (est.), dose: 4.0 mg/kg/injection, schedule: Q07DX005 (ip), vehicle: saline

O=C(O)c1ccc(C(=O)O)c(C(=O)O)c1.[NH-]C1CCCCC1[NH-].[Pt+2]
T/C (endpoint: median tumor weight (est.), dose: 1.56 mg/kg/injection, schedule: Q07DX005 (ip), vehicle: sodium bicarbonate): 38 % of control
T/C (endpoint: median tumor weight (est.), dose: 3.12 mg/kg/injection, schedule: Q07DX005 (ip), vehicle: sodium bicarbonate): 24 % of control
T/C (endpoint: median tumor weight (est.), dose: 6.25 mg/kg/injection, schedule: Q07DX005 (ip), vehicle: sodium bicarbonate): 11 % of control
T/C (endpoint: median tumor weight (est.), dose: 12.5 mg/kg/injection, schedule: Q07DX005 (ip), vehicle: sodium bicarbonate): 11 % of control
T/C (endpoint: median tumor weight (est.), dose: 25.0 mg/kg/injection, schedule: Q07DX005 (ip), vehicle: sodium bicarbonate): 32 % of control

O=S(=O)(O)O.[NH-]C1CCCCC1[NH-].[Pt+2] (stereo not drawn)
T/C (endpoint: mean tumor weight, dose: 0.63 mg/kg/injection, schedule: Q07DX006 (ip), vehicle: water): 54 % of control
T/C (endpoint: mean tumor weight, dose: 1.25 mg/kg/injection, schedule: Q07DX006 (ip), vehicle: water): 44 % of control
T/C (endpoint: mean tumor weight, dose: 2.5 mg/kg/injection, schedule: Q07DX006 (ip), vehicle: water): 4 % of control
T/C (endpoint: mean tumor weight, dose: 5.0 mg/kg/injection, schedule: Q07DX006 (ip), vehicle: water): 1 % of control
T/C (endpoint: median tumor weight (est.), dose: 0.63 mg/kg/injection, schedule: Q07DX005 (ip), vehicle: dextrose): 81 % of control
T/C (endpoint: median tumor weight (est.), dose: 0.63 mg/kg/injection, schedule: Q07DX005 (ip), vehicle: water): 74 % of control
T/C (endpoint: median tumor weight (est.), dose: 1.25 mg/kg/injection, schedule: Q07DX005 (ip), vehicle: dextrose): 41 % of control
T/C (endpoint: median tumor weight (est.), dose: 1.25 mg/kg/injection, schedule: Q07DX005 (ip), vehicle: water): 55 % of control
T/C (endpoint: median tumor weight (est.), dose: 2.5 mg/kg/injection, schedule: Q07DX005 (ip), vehicle: dextrose): 83 % of control
T/C (endpoint: median tumor weight (est.), dose: 2.5 mg/kg/injection, schedule: Q07DX005 (ip), vehicle: water): 41 % of control
T/C (endpoint: median tumor weight (est.), dose: 5.0 mg/kg/injection, schedule: Q07DX005 (ip), vehicle: dextrose): 33 % of control
T/C (endpoint: median tumor weight (est.), dose: 5.0 mg/kg/injection, schedule: Q07DX005 (ip), vehicle: water): 3 % of control

CN(C)CCN1C(=O)c2cccc3cc([N+](=O)[O-])cc(c23)C1=O
T/C (endpoint: median tumor weight change, dose: 7.5 mg/kg/injection, schedule: Q01DX001 (ip), vehicle: saline with Tween-80): 57 % of control
T/C (endpoint: median tumor weight change, dose: 15.0 mg/kg/injection, schedule: Q01DX001 (ip), vehicle: saline with Tween-80): 91 % of control
T/C (endpoint: median tumor weight change, dose: 30.0 mg/kg/injection, schedule: Q01DX001 (ip), vehicle: saline with Tween-80): 55 % of control

C1CCC2[N-]CC3CCCCC3[N-]CC3CCCCC3[N-]CC3CCCCC3[N-]CC2C1.[Cu] (stereo not drawn)
T/C (endpoint: median tumor weight (est.), dose: 6.25 mg/kg/injection, schedule: Q07DX005 (ip), vehicle: Klucel (hydroxypropylcellulose) (HPC)): 71 % of control
T/C (endpoint: median tumor weight (est.), dose: 12.5 mg/kg/injection, schedule: Q07DX005 (ip), vehicle: Klucel (hydroxypropylcellulose) (HPC)): 99 % of control
T/C (endpoint: median tumor weight (est.), dose: 25.0 mg/kg/injection, schedule: Q07DX005 (ip), vehicle: Klucel (hydroxypropylcellulose) (HPC)): 80 % of control

CCN(CC)Cc1cc2[nH]c3c4ccc(Cl)cc4ncc3c2cc1OC
T/C (endpoint: median tumor weight change, dose: 31.0 mg/kg/injection, schedule: Q01DX001 (ip), vehicle: saline with Tween-80): 47 % of control
T/C (endpoint: median tumor weight change, dose: 62.0 mg/kg/injection, schedule: Q01DX001 (ip), vehicle: saline with Tween-80): 109 % of control
T/C (endpoint: median tumor weight change, dose: 125.0 mg/kg/injection, schedule: Q01DX001 (ip), vehicle: saline with Tween-80): 118 % of control

COc1cccc2c1C(=O)c1c(O)c3c(c(O)c1C2=O)C[C@@](O)(/C(C)=N\NC(=O)CO)C[C@@H]3OC1CC(N)C(O)C(C)O1 (stereo partly drawn)
T/C (endpoint: mean tumor weight, dose: 1.0 mg/kg/injection, schedule: Q07DX006 (ip), vehicle: saline): 110 % of control
T/C (endpoint: mean tumor weight, dose: 2.0 mg/kg/injection, schedule: Q07DX006 (ip), vehicle: saline): 207 % of control
T/C (endpoint: mean tumor weight, dose: 4.0 mg/kg/injection, schedule: Q07DX006 (ip), vehicle: saline): 64 % of control
T/C [1]: 85 % of control
T/C [2]: 47 % of control
T/C [3]: 104 % of control

O=C(NO)c1ccccc1
T/C (endpoint: median tumor weight (est.), dose: 25.0 mg/kg/injection, schedule: Q07DX005 (ip), vehicle: suspension in saline): 46 % of control
T/C (endpoint: median tumor weight (est.), dose: 50.0 mg/kg/injection, schedule: Q07DX005 (ip), vehicle: suspension in saline): 109 % of control
T/C (endpoint: median tumor weight (est.), dose: 100.0 mg/kg/injection, schedule: Q07DX005 (ip), vehicle: suspension in saline): 293 % of control

Nc1nc(-c2cccc3ccccc23)cc2ccccc12
T/C (endpoint: median tumor weight (est.), dose: 50.0 mg/kg/injection, schedule: Q07DX005 (ip), vehicle: saline with Tween-80): 53 % of control
T/C (endpoint: median tumor weight (est.), dose: 100.0 mg/kg/injection, schedule: Q07DX005 (ip), vehicle: saline with Tween-80): 81 % of control
T/C (endpoint: median tumor weight (est.), dose: 200.0 mg/kg/injection, schedule: Q07DX005 (ip), vehicle: saline with Tween-80): 37 % of control

Cn1/c2cc/c1=C(\c1ccc(S(=O)(=O)O)cc1)c1ccc([n-]1)/C(c1ccc(S(=O)(=O)O)cc1)=c1/cc/c([nH]1)=C(\c1ccc(S(=O)(=O)O)cc1)c1ccc([n-]1)/C=2c1ccc(S(=O)(=O)O)cc1.O.O=S(=O)(O)C(F)(F)F.[Cu+2]
T/C (endpoint: median tumor weight change, dose: 62.5 mg/kg/injection, schedule: Q01DX001 (ip), vehicle: saline): 124 % of control

O=NN(CCCl)C(=O)NC1CCCCC1
T/C (endpoint: mean tumor weight (est.), dose: 25.0 mg/kg/injection, schedule: Q07DX003 (ip), vehicle: saline + alcohol): 88 % of control
T/C (endpoint: mean tumor weight (est.), dose: 50.0 mg/kg/injection, schedule: Q07DX003 (ip), vehicle: saline + alcohol): 28 % of control
T/C (endpoint: mean tumor weight, dose: 6.25 mg/kg/injection, schedule: Q01DX009 (ip), vehicle: saline): 78 % of control
T/C (endpoint: mean tumor weight, dose: 12.5 mg/kg/injection, schedule: Q01DX009 (ip), vehicle: saline): 75 % of control
T/C (endpoint: mean tumor weight, dose: 12.5 mg/kg/injection, schedule: Q07DX006 (ip), vehicle: saline + alcohol): 74 % of control
T/C (endpoint: mean tumor weight, dose: 25.0 mg/kg/injection, schedule: Q01DX009 (ip), vehicle: saline): 28 % of control
T/C (endpoint: mean tumor weight, dose: 25.0 mg/kg/injection, schedule: Q07DX006 (ip), vehicle: saline + alcohol): 44 % of control
T/C (endpoint: mean tumor weight, dose: 25.0 mg/kg/injection, schedule: Q07DX006 (ip), vehicle: saline): 61 % of control
T/C (endpoint: mean tumor weight, dose: 50.0 mg/kg/injection, schedule: Q07DX006 (ip), vehicle: saline + alcohol): 11 % of control
T/C (endpoint: mean tumor weight, dose: 50.0 mg/kg/injection, schedule: Q07DX006 (ip), vehicle: saline): 220 % of control
T/C (endpoint: median tumor weight (est.), dose: 8.0 mg/kg/injection, schedule: Q07DX005 (ip), vehicle: Klucel (hydroxypropylcellulose) (HPC)): 99 % of control
T/C (endpoint: median tumor weight (est.), dose: 16.0 mg/kg/injection, schedule: Q07DX005 (ip), vehicle: Klucel (hydroxypropylcellulose) (HPC)): 30 % of control
T/C (endpoint: median tumor weight (est.), dose: 32.0 mg/kg/injection, schedule: Q07DX005 (ip), vehicle: Klucel (hydroxypropylcellulose) (HPC)): 29 % of control
T/C (endpoint: median tumor weight change, dose: 4.0 mg/kg/injection, schedule: Q01DX001 (ip), vehicle: Klucel (hydroxypropylcellulose) (HPC)): 66 % of control
T/C (endpoint: median tumor weight change, dose: 8.0 mg/kg/injection, schedule: Q01DX001 (ip), vehicle: Klucel (hydroxypropylcellulose) (HPC)): 73 % of control
T/C (endpoint: median tumor weight change, dose: 15.0 mg/kg/injection, schedule: Q01DX001 (ip), vehicle: Klucel (hydroxypropylcellulose) (HPC)): 91 % of control
T/C (endpoint: median tumor weight change, dose: 16.0 mg/kg/injection, schedule: Q01DX001 (ip), vehicle: Klucel (hydroxypropylcellulose) (HPC)): 55 % of control
T/C (endpoint: median tumor weight change, dose: 30.0 mg/kg/injection, schedule: Q01DX001 (ip), vehicle: Klucel (hydroxypropylcellulose) (HPC)): 34 % of control
T/C (endpoint: median tumor weight change, dose: 32.0 mg/kg/injection, schedule: Q01DX001 (ip), vehicle: Klucel (hydroxypropylcellulose) (HPC)): 40 % of control
T/C (endpoint: median tumor weight change, dose: 60.0 mg/kg/injection, schedule: Q01DX001 (ip), vehicle: Klucel (hydroxypropylcellulose) (HPC)): -23 % of control
T/C (endpoint: median tumor weight change, dose: 80.0 mg/kg/injection, schedule: Q01DX001 (ip), vehicle: Klucel (hydroxypropylcellulose) (HPC)): 17 % of control

COC(=O)C[C@](O)(CCCC(C)(C)O)C(=O)O[C@@H]1C(OC)=C[C@]23CCCN2CCc2cc4c(cc2[C@H]13)OCO4
T/C (endpoint: median tumor weight (est.), dose: 0.25 mg/kg/injection, schedule: Q07DX005 (ip), vehicle: saline): 59 % of control
T/C (endpoint: median tumor weight (est.), dose: 0.5 mg/kg/injection, schedule: Q07DX005 (ip), vehicle: saline): 57 % of control and 60 % of control
T/C [1]: 61 % of control and 78 % of control
T/C [2]: 14 % of control and 21 % of control
T/C [3]: 7 % of control

COc1cccc2c1C(=O)c1c(O)c3c(c(O)c1C2=O)C[C@@](O)(C(C)=O)C[C@@H]3OC1CC(N(C)C)C(O)C(C)O1 (stereo partly drawn)
T/C (endpoint: mean tumor weight, dose: 1.0 mg/kg/injection, schedule: Q07DX006 (ip), vehicle: water): 197 % of control
T/C (endpoint: mean tumor weight, dose: 2.0 mg/kg/injection, schedule: Q07DX006 (ip), vehicle: water): 73 % of control
T/C (endpoint: mean tumor weight, dose: 4.0 mg/kg/injection, schedule: Q07DX006 (ip), vehicle: water): 30 % of control
T/C (endpoint: mean tumor weight, dose: 8.0 mg/kg/injection, schedule: Q07DX006 (ip), vehicle: water): 1 % of control
T/C (endpoint: median tumor weight (est.), dose: 1.0 mg/kg/injection, schedule: Q07DX005 (ip), vehicle: water): 108 % of control
T/C (endpoint: median tumor weight (est.), dose: 2.0 mg/kg/injection, schedule: Q07DX005 (ip), vehicle: water): 63 % of control
T/C (endpoint: median tumor weight (est.), dose: 4.0 mg/kg/injection, schedule: Q07DX005 (ip), vehicle: water): 45 % of control
T/C (endpoint: median tumor weight (est.), dose: 8.0 mg/kg/injection, schedule: Q07DX005 (ip), vehicle: water): 42 % of control
